Target: T1, soybean lipoxygenase LOX-1 (Glycine max, UniProt P08170)
T1 sequence (P08170 1-839): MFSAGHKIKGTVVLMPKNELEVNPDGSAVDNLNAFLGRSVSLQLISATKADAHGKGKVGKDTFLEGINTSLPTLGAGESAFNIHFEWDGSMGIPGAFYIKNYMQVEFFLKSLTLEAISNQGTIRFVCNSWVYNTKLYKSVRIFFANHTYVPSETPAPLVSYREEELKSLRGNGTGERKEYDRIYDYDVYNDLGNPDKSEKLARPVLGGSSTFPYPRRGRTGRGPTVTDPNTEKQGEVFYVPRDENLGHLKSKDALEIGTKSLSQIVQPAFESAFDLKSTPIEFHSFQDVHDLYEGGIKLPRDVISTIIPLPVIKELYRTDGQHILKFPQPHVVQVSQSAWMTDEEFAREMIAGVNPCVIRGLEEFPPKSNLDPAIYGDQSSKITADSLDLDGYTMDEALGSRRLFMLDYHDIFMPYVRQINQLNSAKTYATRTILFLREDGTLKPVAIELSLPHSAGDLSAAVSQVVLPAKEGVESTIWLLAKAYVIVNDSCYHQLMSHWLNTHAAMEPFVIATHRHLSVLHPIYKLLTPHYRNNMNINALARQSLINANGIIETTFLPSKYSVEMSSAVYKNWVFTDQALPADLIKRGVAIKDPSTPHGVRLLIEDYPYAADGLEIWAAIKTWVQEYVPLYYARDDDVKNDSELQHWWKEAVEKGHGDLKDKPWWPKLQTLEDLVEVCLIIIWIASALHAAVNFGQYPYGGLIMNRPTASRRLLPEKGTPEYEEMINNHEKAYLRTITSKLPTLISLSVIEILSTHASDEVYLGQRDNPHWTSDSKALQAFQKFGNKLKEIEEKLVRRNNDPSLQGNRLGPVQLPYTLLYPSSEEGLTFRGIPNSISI
Assay type: biochemical

IC50 | Compound
19 µM | SC1=NC(c2ccccc2)=CC(c2ccccc2)N1 (centres unmarked) [KKII5, 4,6-diphenyl-3,4-dihydropyrimidine-2(1H)-thione]
22.5 µM | NNC(=S)N/N=C/c1ccccc1 [DKI5, (E)-N′-benzylidenehydrazinecarbothiohydrazide]

Source: publication PMC10077549 (ACS Omega, 2023)
